The values below come from publication PMC11928584, “H105A peptide eye drops promote photoreceptor survival in murine and human models of retinal degeneration” (Communications Medicine, 2025).

Each structure is given as a SMILES string. Values joined by “and” are separate entries in the source; they are usually repeats but may differ in a detail not shown here. Equal entries are not always repeated. Where a SMILES comes first, the peptide text is derived from it.

Data set [1] in a line: Fluorescence distribution of labeled peptides in retinal cross-sections. It counts as in vivo, C57BL/6J mice. Conditions: Alexa Fluor 488-labeled peptide, eye drops, retinal cross-sections 1 h post-administration. The source says: Fig. 1 Penetration and bioavailability of PEDF Peptides 17-mer, H105A, and R99A Delivered via Eye Drops in Mouse Retinas. a Peptide mapping and sequence. Tertiary structure of human PEDF highlighting the small peptide region with neurotrophic activity (17-mer) in blue (top). Primary structure of human PEDF showing the location of the 17-mer region (middle). Sequences of the 17-mer peptide and its variants, H105A and R99A (bottom). b In vivo detection of peptides. Fundus micrographs showing fluorescence from Alexa Fluor 488-labeled 17-mer, H105A, and R99A peptides in the eyes of C57BL/6J mice at P21 days after eye drop administration of 5 µl of peptide at 1 mg/ml (left). Fundus images were taken at 1, 3-, 6-, 24-, and 48 h post-administration. Quantification of fluorescence intensity over time post-administration (right). […] The amount of peptide was quantified from the fluorescence in retinal extracts using standard curves (Supplementary Fig. 1a). Each data point represents the amount of each peptide per eye with three eyes (n = 3) per time point. d Retinal cross-sections showing fluorescence distribution in the photoreceptor layer 1 h after applying eye drops as in Panel B. Representative images for labeled 17-mer, H105A, and R99A peptides are shown, with magnified areas of 17-mer and H105A indicated by dotted rectangles. […]

The subject of data set [2] is human iPSC-derived retinal organoids exposed to CSE. Kind of data set: TUNEL staining of retinal organoid sections. It counts as cell-based. The conditions noted are these: Figure 8f, individual values, n=5. Here is the method: Human iPSCs were differentiated into retinal organoids (ROs) following the protocol by Zhong et al.[41]. Briefly, on Day 0, hiPSC colonies were dissociated with dispase and grown in a suspension to form embryoid bodies, and slowly transitioned to neural induction media (DMEM/F12 (1:1), 1% N2 supplement (Invitrogen), 1 x minimum essential media-nonessential amino acids (NEAAs), 2 µg/ml heparin (Sigma)). On Day 7, EBs were seeded on Matrigel coated plates and maintained in neural induction media. On Day 16, the media was switched to the retinal differentiation medium (DMEM/F12 (3:1), 2% B27 (without vitamin A, Invitrogen), 1x NEAA and 1% antibiotic–antimycotic (Gibco)). Retinal domains were identified and lifted manually with tungsten needles between Day 21 and Day 26 under a phase contrast microscope. On day 30, the culture medium was transitioned to DMEM/F12 (3:1) with 2% B27, 1x NEAA, 1% antibiotic–antimycotic, 10% fetal bovine serum (FBS; Gibco), […] Taurine (Sigma), and 2 mM GlutaMAX (Invitrogen). Additionally, 1 µM retinoic acid supplement was introduced daily starting from day 63. On day 91, the medium was modified to DMEM/F12 (1:1) supplemented with 1% N2, 1 x NEAAs, 1% antibiotic–antimycotic, 10% FBS, […] Taurine and 2 mM GlutaMAX, and the concentration of retinoic acid supplementation was reduced to 0.5 µM for the remainder of the culture period. The use of hiPSCs in this study conforms to the University of Colorado Institutional Biosafety Committee standards. […]
D180 ROs were treated with each of the 5 experimental conditions, as described above (n = 5 for each condition), washed with PBS three times, and fixed with 4% paraformaldehyde for 10 min at room temperature. […] Fluorescence images were acquired with a Nikon C2 Confocal Microscope A1 (Minato City, Tokyo, Japan) and stitched together using Nikon Elements Software. Images were analysed with Fiji. The relative area of positive immunostaining was calculated as a percentage of total retinal area. […]

Turning to `CC[C@H](C)[C@H](NC(=O)[C@H](CC(C)C)NC(=O)[C@H](CC(=O)O)NC(=O)[C@H](Cc1ccc(O)cc1)NC(=O)[C@H](Cc1ccc(O)cc1)NC(=O)[C@H](CC(C)C)NC(=O)[C@H](C)NC(=O)[C@H](CCCNC(=N)N)NC(=O)[C@H](Cc1c[nH]cn1)NC(=O)[C@@H](NC(=O)[C@@H](NC(=O)[C@H](CO)NC(=O)[C@H](CCC(=O)O)NC(=O)[C@@H](NC(=O)[C@H](CCCNC(=N)N)NC(=O)[C@@H](N)CCC(N)=O)[C@@H](C)O)[C@@H](C)CC)[C@@H](C)CC)C(=O)N[C@@H](CO)C(=O)O` [17-mer] (H-QRTESIIHRALYYDLIS-OH), the “distribution of labeled peptide in photoreceptor layer” value in data set [1] was “decorated the OS in a punctuated fashion”.
In the case of `CC[C@H](C)[C@H](NC(=O)[C@H](CC(C)C)NC(=O)[C@H](CC(=O)O)NC(=O)[C@H](Cc1ccc(O)cc1)NC(=O)[C@H](Cc1ccc(O)cc1)NC(=O)[C@H](CC(C)C)NC(=O)[C@H](C)NC(=O)[C@H](CCCNC(=N)N)NC(=O)[C@H](C)NC(=O)[C@@H](NC(=O)[C@@H](NC(=O)[C@H](CO)NC(=O)[C@H](CCC(=O)O)NC(=O)[C@@H](NC(=O)[C@H](CCCNC(=N)N)NC(=O)[C@@H](N)CCC(N)=O)[C@@H](C)O)[C@@H](C)CC)[C@@H](C)CC)C(=O)N[C@@H](CO)C(=O)O` [H150A] (H-QRTESIIARALYYDLIS-OH), the “Relative TUNEL(+) area” value in data set [2] (CSE + peptide 1nM) was 2.16 and 2.78 and 3.68 and 2.70 and 2.54; in data set [2] (CSE + peptide 20nM) it was 1.75 and 2.66 and 2.53 and 2.94 and 1.87.
